Assays:
Assay in all cases: relative viability (nuclei count vs DMSO), 5 days (fraction); higher = more cells survive
[1] = compound: CCN(CC)CCNC(=O)c1c(C)[nH]c(/C=C2\C(=O)Nc3ccc(F)cc32)c1C [Sunitinib]
In short: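 Lung cancer cell lines received five library-drug doses (not always all listed) spaced by √10, pinned on vehicle-anchored 1536-well plates after an overnight stay at 37 °C. Five days later, with no medium change, nuclei were Hoechst-stained, imaged at 4× and counted with MetaXpress. Viability is treated-well nuclei relative to vehicle-well nuclei, as a median across plates. Passing plates had control CV below 25% and at least one doubling.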

[2] = compound: CCN(CC)CCNC(=O)c1c(C)[nH]c(/C=C2\C(=O)Nc3ccc(F)cc32)c1C [Sunitinib] + CC1(C)CCC(c2ccc(Cl)cc2)=C(CN2CCN(c3ccc(C(=O)NS(=O)(=O)c4ccc(N[C@H](CCN5CCOCC5)CSc5ccccc5)c(S(=O)(=O)C(F)(F)F)c4)cc3)CC2)C1 [Navitoclax] (partner 0.5 µM)
In short: (§1)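 The day after seeding in 1536-well plates, lung cancer cell lines were treated by pin tool with a single drug, or with a fixed anchor-drug dose together with five library-drug doses (not always all listed) in √10 steps. After 5 days, a combined fix-and-stain solution (final 0.05% Triton X-100, 1% formaldehyde, 1 ug/ml Hoechst) was added. Nuclei counted on 4× images gave relative viability as treated counts over vehicle counts, reported as the median of duplicate plates.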

[3] = compound: CCN(CC)CCNC(=O)c1c(C)[nH]c(/C=C2\C(=O)Nc3ccc(F)cc32)c1C [Sunitinib] + Cc1cc(Nc2cc(N3CCN(C)CC3)nc(Sc3ccc(NC(=O)C4CC4)cc3)n2)n[nH]1 [Tozasertib] (partner 0.1 µM)
In short: as §1

[4] = compound: CCN(CC)CCNC(=O)c1c(C)[nH]c(/C=C2\C(=O)Nc3ccc(F)cc32)c1C [Sunitinib] + N=C(N)NC(=N)NCCc1ccccc1 [Phenformin] (partner 250 µM)
In short: as §1

Row | Cell Line | relative viability ([1]; 0.02 µM) | relative viability ([1]; 0.06325 µM) | relative viability ([1]; 0.2 µM) | relative viability ([1]; 0.6325 µM) | relative viability ([1]; 2 µM) | relative viability ([2]; first compound 0.02 µM) | relative viability ([2]; first compound 0.06325 µM) | relative viability ([2]; first compound 0.6325 µM) | relative viability ([2]; first compound 2 µM) | relative viability ([3]; first compound 0.02 µM) | relative viability ([3]; first compound 0.06325 µM) | relative viability ([3]; first compound 0.2 µM) | relative viability ([3]; first compound 0.6325 µM) | relative viability ([3]; first compound 2 µM) | relative viability ([4]; first compound 0.02 µM) | relative viability ([4]; first compound 0.06325 µM) | relative viability ([4]; first compound 0.2 µM) | relative viability ([4]; first compound 0.6325 µM) | relative viability ([4]; first compound 2 µM) | relative viability ([2]; first compound 0.2 µM)
1 | NCI-H647 | 0.991 | 1.14 | 1.03 | 0.989 | 0.956 | 0.988 | 1.18 | 1.24 | 1.22 | 0.344 | 0.294 | 0.262 | 0.345 | 0.309 | 0.489 | 0.72 | 0.542 | 0.55 | 0.471 | –
2 | NCI-H727 | 0.942 | 1.17 | 1.23 | 1.09 | 0.859 | 0.433 | 0.45 | 0.523 | 0.396 | 0.603 | 0.686 | 0.565 | 0.658 | 0.529 | 0.475 | 0.733 | 0.649 | 0.67 | 0.538 | 0.454
3 | NCI-H838 | 0.932 | 1.06 | 1.03 | 0.952 | 0.782 | 1.1 | 1.23 | 1.13 | 0.91 | 0.301 | 0.311 | 0.314 | 0.266 | 0.246 | 0.546 | 0.769 | 0.583 | 0.583 | 0.511 | 1.28
4 | NCI-H1355 | 0.962 | 1.07 | 1.12 | 1.02 | 1.05 | 0.841 | 0.961 | 0.923 | 0.983 | 0.529 | 0.561 | 0.601 | 0.594 | 0.406 | 0.441 | 0.453 | 0.473 | 0.482 | 0.432 | 0.921
5 | NCI-H1395 | 1.02 | 1.01 | 0.925 | 0.991 | 0.945 | 1.03 | 1.21 | 1.27 | 1.17 | 0.751 | 0.72 | 0.696 | 0.846 | 0.779 | 0.462 | 0.415 | 0.446 | 0.487 | 0.482 | 1.34
6 | NCI-H1437 | 1.03 | 1.03 | – | 0.996 | 1.09 | 1.06 | 1.2 | 1.13 | 1.16 | 0.391 | 0.302 | 0.408 | 0.39 | 0.41 | 0.362 | 0.314 | 0.321 | 0.297 | 0.323 | 1.19
7 | NCI-H1650 | – | 1.05 | 0.964 | 0.942 | 0.903 | 1.48 | 1.18 | 1.34 | 1.33 | 0.323 | 0.416 | 0.382 | 0.321 | 0.245 | 0.384 | 0.492 | 0.382 | 0.533 | 0.371 | 1.4
8 | NCI-H1651 | 0.938 | 1.1 | – | 0.996 | 1.03 | 0.922 | 1.09 | 1.08 | 1.15 | 0.618 | 0.687 | 0.787 | 0.584 | 0.548 | 0.289 | 0.332 | 0.352 | 0.353 | 0.368 | 1.19

— the supplement of paper PMC10307832
